The subject of one assay is THP-1 macrophages. In words: Foam cell formation / nLDL macropinocytosis, Nile Red FACS. The note with it: EIPA 25 μM, 1 hr pre-incubation; nLDL 50 μg/ml. The format is cell-based, human. The procedure: Flow cytometry experiments were performed using the BD Accuri C6 flow cytometer using a standard protocol.
Foam cell formation: THP-1 macrophages or bone marrow-derived macrophages were treated with vehicle, known macropinocytosis stimulators (PMA 1 μM, M-CSF 100 ng/mL or PDGF 200 ng/mL)+/− macropinocytosis inhibitors (imipramine 10 μM or EIPA 25 μM; 1 hour pre-incubation) in the presence of nLDL, ox-LDL, or ac-LDL ([…]) for 24 hours. Cells were fixed in 2% PFA and stained with Nile Red (50 ng/mL) for 7 min. Fluorescence intensity was measured using the FL3 channel for Nile Red (Ex: 488 nm, Em: 670 nm).

Assay [1] relates to RAW 264.7 macrophages. In words: Caveolin-mediated endocytosis of Alexa Fluor 488-albumin. It counts as cell-based. The note with it: EIPA 25 μM, 1 hr; AF488-albumin 1 μg/ml. The procedure:
Clathrin- and caveolin-mediated endocytosis: Receptor-mediated uptake of FITC-transferrin (1 μg/mL; clathrin-mediated endocytosis) and Alexa Fluor 488-albumin ([…]; caveolin-mediated endocytosis) was investigated in RAW 264.7 macrophages following their incubation with ±EIPA (25 μM; 1 hour pre-incubation). Fluorescence intensity was measured using the FL1 channel for FITC and Alexa Fluor 488 (Ex: 488 nm, Em: 530 nm).

A further assay deals with Wild type BMDM. Briefly: Cytokine secretion, LEGENDplex bead-based immunoassay. It counts as cell-based, mouse. The procedure: Wild type BMDM were incubated with vehicle or treated with EIPA (25 μM, 24 hours). Cytokine secretion into the media was quantified using the LEGENDplex™ (mouse inflammation panel) bead-based immunoassay according to the manufacturer's instructions (BioLegend, San Diego, Calif., USA). Data were acquired using four-color BD FACSCalibur (BD Biosciences, San Jose, Calif., USA) and analyzed using the LEGENDplex Data Analysis software (BioLegend).

Assay [2] concerns THP-1 monocytes on human aortic endothelial cells. Briefly: Monocyte adhesion assay. The note with it: EIPA 25 μM; HAEC TNFα 10 ng/ml, 4 hr. The format is cell-based. The protocol: Adhesion studies were performed using the human monocyte cell line THP-1. Vehicle- or EIPA (25 μM, 24 hours)-treated THP-1 monocytes were labeled using Vybrant™ CFDA SE Cell Tracer Kit (ThermoFisher). Human aortic endothelial cell monolayers grown on coverslips in a 24-well plate were treated with vehicle (PBS) or TNFα (10 ng/ml) for 4 hours. Endothelial cells were labeled with Cell Tracker™ Deep Red Dye (ThermoFisher). Fifty microliter of THP-1 monocyte suspension containing 1×10^6 cells was added to each well of endothelial cells, and the plates were gently agitated and placed in a cell culture incubator for 1 hour. At the end of the incubation period, the monolayer was gently washed three times with cold PBS. After the final wash, coverslips were stained with Hoechst 33342 (ThermoFisher) and mounted onto slides using mounting medium. Fluorescent signals were detected using a Zeiss 780 upright confocal microscopy. Quantification was completed with Image-Pro Plus software (Media Cybemetics, Bethesda, Md., USA).

Another assay relates to ApoE-/- mice. In words: Atherosclerosis model: ApoE-/- mice, partial LCA ligation, Western diet. The format is in vivo, mouse. The note with it: male ApoE-/- mice, Western diet 4 weeks, EIPA via subcutaneously implanted minipump.
Assay [3] deals with RAW 264.7 macrophages. Briefly: Measurement of cholesterol efflux (DiI). It counts as cell-based. The note with it: EIPA 25 μM, 1 hour. The procedure:
RAW 264.7 macrophages were pretreated with vehicle or EIPA (25 μM, 1 hour) and incubated with PMA (1 μM) in the presence or absence of Dil-LDL (50 μg/mL) at 37° C. for 24 h. Cells were washed 3 times with PBS, RPMI-1640 medium containing 1% FBS was added and cells incubated for another 24 hours. Finally, the medium was collected and Dil fluorescence intensity in the media was measured using a CLARIOstar multi-mode microplate reader.

Assay [4] has as its system F4/80+ macrophages of atherosclerotic ApoE-/- aorta. In words: In vivo DiI-nLDL uptake by macrophages of atherosclerotic arteries. Conditions: EIPA 25 mg/kg/day, i.p. for 3 days; DiI-nLDL 100 μg retro-orbitally; 12 weeks Western diet. Also on record: species or system mouse. The protocol: Isolation of macrophages from atherosclerotic arteries: 8-10-week-old ApoE^−/− mice were fed a Western diet for 12 weeks. Mice were treated with vehicle or EIPA (25 mg/kg/day, i.p.) for 3 days. On the day of sacrifice, mice were retro-orbitally injected with vehicle or 100 μg Dil-nLDL. After 4 hours, mice were anaesthetized and perfused with ice-cold PBS for 5 min and the entire thoracic aorta with LCA was isolated. Following removal of the adventitia, macrophages were isolated using the Neonatal Heart Dissociation Kit (Miltenyi Biotech.) and CD11b microbeads (Miltenyi Biotech.). Cells were stained with anti-F4/80-APC (clone BM8) or IgG control antibodies (Biolegend). Dil fluorescence was measured in F4/80-positive macrophages [Dil (Ex: 549 nm, Em: 565 nm) and APC (Ex: 640 nm, Em: 670 nm)].

These results are taken from patent US20210386754A1, “COMPOSITIONS AND METHODS FOR TREATING ATHEROSCLEROTIC VASCULAR DISEASE” (AUGUSTA UNIVERSITY RESEARCH INSTITUTE, INC., priority 2020, published 2021).

“Also recorded” adds a separate entry of the source.

For `CCN(c1nc(N)c(C(=O)N=C(N)N)nc1Cl)C(C)C` [EIPA, 5-(N-ethyl-N-isopropyl)amiloride], the “PMA-induced nLDL macropinocytosis” value in the assay with THP-1 macrophages is “blocks macrophage macropinocytosis; also recorded: inhibits”. Further, the caveolin-dependent albumin internalization result in the assay with RAW 264.7 macrophages [1] was “without inhibiting; also recorded: does not inhibit”. Also, in the assay on Wild type BMDM (EIPA 25 μM, 24 hours, n = 3, vehicle 2.40 ± 0.58), the IL-6 secretion was 1.82 ± 0.40 pg/mL. For the same molecule, the TNFα secretion in the assay on Wild type BMDM (EIPA 25 μM, 24 hours, n = 3, vehicle 7.83 ± 1.89) amounted to 4.76 ± 0.77 pg/mL. The same molecule showed an MCP-1 secretion with Wild type BMDM (EIPA 25 μM, 24 hours, n = 3, vehicle 38.04 ± 6.03) of 22.19 ± 2.30 pg/mL. Moreover, in the assay with Wild type BMDM (in the absence of exogenous lipids), the “macrophage secretion of TNF-α, MCP-1, and IL-6” value was “does not inhibit”. Further, the “monocyte adhesion to TNFα-treated endothelial cells” value in assay [2] is reported as “does not inhibit”. For the same molecule, in the assay on ApoE-/- mice, the “atherosclerosis (ORO positive area, LCA)” value is “inhibited atherosclerosis; also recorded: attenuates”. Besides, in the assay with RAW 264.7 macrophages [3], the “cholesterol efflux in lipid-laden macrophages” value is recorded as “does not promote”. The “DiI-LDL uptake by F4/80+ macrophages in atherosclerotic arteries” value in assay [4] is on record as “substantially inhibited”.
